The results in this text go back to ChEMBL document CHEMBL1146197, “Evolution of TEM-type enzymes: biochemical and genetic characterization of two new complex mutant TEM enzymes, TEM-151 and TEM-152, from a single patient” (Antimicrob Agents Chemother, 2007).

In brackets after ≈: the same amount, converted by molar mass.

For experiment [1], the system named is Escherichia coli. The experiment can be described thus: Antimicrobial activity against Escherichia coli DH5-alpha CF1179 isolate expressing CMT and TEM1 by […]. In kind it is functional. To be noted: DH5alpha. A general note: In agar diffusion tests the substance spreads into inoculated agar from a disc or well.
Experiment [2] relates to Escherichia coli. The experiment can be described thus: Antimicrobial activity against Escherichia coli DH5-alpha CF1295 isolate expressing CMT and TEM1 by […]. In kind it is functional. The following applies: DH5alpha.
For experiment [3], the system named is Escherichia coli. Put plainly: microbe, parasite or virus in culture. The format is functional. The following applies: DH5alpha.
For experiment [4], the system named is Escherichia coli. Put plainly: microbe, parasite or virus in culture. The format is functional. The following applies: DH5alpha. The source holds these as a separate data set.
Experiment [5] relates to Escherichia coli. The experiment can be described thus: Antimicrobial activity against recombinant Escherichia coli DH5-alpha isolate expressing pBK-TEM-29 and ESBL by disk diffusion assay. The following applies: DH5alpha. The format is functional.
For experiment [6], the system named is Escherichia coli. Put plainly: Antimicrobial activity against recombinant Escherichia coli DH5-alpha isolate expressing pBK-TEM-28 and ESBL by disk diffusion assay. The format is functional. The following applies: DH5alpha.
For experiment [7], the system named is Escherichia coli. The experiment can be described thus: Antimicrobial activity against recombinant Escherichia coli DH5-alpha isolate expressing pBK-TEM-1 and TEM1 by disk diffusion assay. The format is functional. To be noted: DH5alpha.
The subject of experiment [8] is Escherichia coli. The experiment can be described thus: Antimicrobial activity against Escherichia coli DH5-alpha TC1295 isolate expressing TEM-1 by […]. The following applies: DH5alpha. In kind it is functional.
The test system of experiment [9] is Escherichia coli. Put plainly: Antimicrobial activity against Escherichia coli DH5-alpha TC1179 isolate expressing TEM-1 by […]. The format is functional. To be noted: DH5alpha.
Experiment [10] deals with Escherichia coli. Put plainly: Antimicrobial activity against Escherichia coli DH5-alpha isolate expressing pBK-CMV by […]. The following applies: DH5alpha. In kind it is functional.
Experiment [11] has as its system Escherichia coli. The experiment can be described thus: Activity of Escherichia coli BL21(DE3) beta-lactamase TEM151.
Experiment [12] relates to Escherichia coli. Put plainly: Activity of Escherichia coli BL21(DE3) beta-lactamase TEM29.
Experiment [13] has as its system Escherichia coli. Put plainly: Activity of Escherichia coli BL21(DE3) beta-lactamase TEM152.
In experiment [14] the test system is Escherichia coli. Put plainly: Activity of Escherichia coli BL21(DE3) beta-lactamase TEM28.
Experiment [15] concerns Escherichia coli. Put plainly: Activity of Escherichia coli BL21(DE3) beta-lactamase TEM36.
The test system of experiment [16] is Escherichia coli. Put plainly: Activity of Escherichia coli BL21(DE3) beta-lactamase TEM1.
In experiment [17] the test system is Escherichia coli. Put plainly: Antimicrobial activity against recombinant Escherichia coli DH5-alpha isolate expressing pBK-TEM-36 and IRT by disk diffusion assay. The format is functional. The following applies: DH5alpha.

For `CC1(C)S[C@@H]2[C@H](NC(=O)[C@H](N)c3ccc(O)cc3)C(=O)N2[C@H]1C(=O)O` [AMOXICILLIN], the MIC against Escherichia coli [1], in the experiment with Escherichia coli [2], with Escherichia coli [3], in the experiment on Escherichia coli [4], in the experiment on Escherichia coli [5] and in the experiment on Escherichia coli [6] was more than 2050 µg/mL each time. Besides, the MIC in the experiment with Escherichia coli [7] was more than 2050 µg/mL; against Escherichia coli [8], more than 2050 µg/mL; in the experiment on Escherichia coli [9] it was more than 2050 µg/mL; in the experiment on Escherichia coli [10], 4 µg/mL (≈ 10.9 µM); in the experiment on Escherichia coli [17], more than 2050 µg/mL. Moreover, the Michaelis-Menten constant (Km) (commonly the concentration of substrate that gives half-maximal velocity) came out at 40 µM in the experiment with Escherichia coli [11]; 26 µM in the experiment with Escherichia coli [12]; 48 µM in the experiment on Escherichia coli [13]; 12 µM in the experiment on Escherichia coli [14]; 114 µM with Escherichia coli [15]; 15 µM with Escherichia coli [16]. Moreover, the kcat – broadly, the maximal rate divided by the concentration of active sites – with Escherichia coli [11] stood at 149 s⁻¹; in the experiment with Escherichia coli [12], 91 s⁻¹; in the experiment with Escherichia coli [13] it was 258 s⁻¹; with Escherichia coli [14], 88 s⁻¹; in the experiment with Escherichia coli [15] it was 624 s⁻¹; in the experiment with Escherichia coli [16], 1120 s⁻¹. The specificity constant (kcat/Km) (as a rule, the second-order rate constant that governs catalysis at low substrate concentration) in the experiment with Escherichia coli [11] was 3.7e+06 M⁻¹ s⁻¹; in the experiment on Escherichia coli [12] it was 3.5e+06 M⁻¹ s⁻¹; in the experiment on Escherichia coli [13], 5.4e+06 M⁻¹ s⁻¹; with Escherichia coli [14], 7.3e+06 M⁻¹ s⁻¹; with Escherichia coli [15] it was 5.5e+06 M⁻¹ s⁻¹; in the experiment with Escherichia coli [16], 7.5e+07 M⁻¹ s⁻¹.
Take `CC(=O)OCC1=C(C(=O)O)N2C(=O)[C@@H](NC(=O)Cc3cccs3)[C@H]2SC1` [CEPHALOTHIN]: the MIC in the experiment on Escherichia coli [1] was 32 µg/mL (≈ 80.7 µM); with Escherichia coli [2], 32 µg/mL (≈ 80.7 µM); in the experiment with Escherichia coli [3] it was 8 µg/mL (≈ 20.2 µM); against Escherichia coli [4] it was 16 µg/mL (≈ 40.4 µM); with Escherichia coli [5], 64 µg/mL; in the experiment with Escherichia coli [6], 128 µg/mL. The MIC in the experiment on Escherichia coli [7] came out at 4 µg/mL; with Escherichia coli [8] it was 4 µg/mL (≈ 10.1 µM); with Escherichia coli [9], 4 µg/mL (≈ 10.1 µM); against Escherichia coli [10], 4 µg/mL (≈ 10.1 µM); with Escherichia coli [17], 16 µg/mL. Moreover, the Michaelis constant (Km) with Escherichia coli [11] was 330 µM; in the experiment with Escherichia coli [12], 205 µM; in the experiment with Escherichia coli [13], 260 µM; with Escherichia coli [14], 288 µM; with Escherichia coli [15], 335 µM; in the experiment on Escherichia coli [16], 242 µM. Further, the turnover number (kcat) in the experiment with Escherichia coli [11] came to 15 s⁻¹; in the experiment on Escherichia coli [12], 126 s⁻¹; in the experiment with Escherichia coli [13] it was 4 s⁻¹; in the experiment with Escherichia coli [14] it was 194 s⁻¹; with Escherichia coli [15], 18.4 s⁻¹; with Escherichia coli [16] it was 165 s⁻¹. Besides, the kcat/Km in the experiment on Escherichia coli [11] came to 40000 M⁻¹ s⁻¹; in the experiment with Escherichia coli [12] it was 610000 M⁻¹ s⁻¹; in the experiment on Escherichia coli [13] it was 20000 M⁻¹ s⁻¹; in the experiment with Escherichia coli [14], 670000 M⁻¹ s⁻¹; in the experiment on Escherichia coli [15], 50000 M⁻¹ s⁻¹; in the experiment on Escherichia coli [16] it was 700000 M⁻¹ s⁻¹.
For the molecule `C[C@H]1[C@H](NC(=O)/C(=N\OC(C)(C)C(=O)O)c2csc(N)n2)C(=O)N1S(=O)(=O)O` (stereo in doubt) [AZTREONAM], the MIC against Escherichia coli [1] was more than 2050 µg/mL; against Escherichia coli [2], 8 µg/mL (≈ 18.4 µM); against Escherichia coli [3] it was 2 µg/mL (≈ 4.59 µM); in the experiment with Escherichia coli [4], 64 µg/mL (≈ 147 µM); in the experiment on Escherichia coli [5], 4 µg/mL. For the same molecule, the Michaelis-Menten constant (Km) in the experiment on Escherichia coli [11] is 83 µM; in the experiment on Escherichia coli [12] it was 34 µM; in the experiment with Escherichia coli [13] it was 22 µM; in the experiment with Escherichia coli [14], 75 µM. Also, the kcat was 8.3 s⁻¹ with Escherichia coli [11]; 2.1 s⁻¹ with Escherichia coli [12]; 3.5 s⁻¹ with Escherichia coli [13]; 43 s⁻¹ in the experiment on Escherichia coli [14]; less than 0.1 s⁻¹ in the experiment on Escherichia coli [15]; less than 0.1 s⁻¹ in the experiment with Escherichia coli [16]. Besides, the catalytic efficiency (kcat/Km) with Escherichia coli [11] turned out to be 100000 M⁻¹ s⁻¹; in the experiment with Escherichia coli [12] it was 60000 M⁻¹ s⁻¹; in the experiment with Escherichia coli [13] it was 160000 M⁻¹ s⁻¹; with Escherichia coli [14], 570000 M⁻¹ s⁻¹.
Turning to `CCN1CCN(C(=O)N[C@@H](C(=O)N[C@@H]2C(=O)N3[C@@H]2SC(C)(C)[C@@H]3C(=O)O)c2ccccc2)C(=O)C1=O` [PIPERACILLIN], the MIC in the experiment with Escherichia coli [1] is more than 2050 µg/mL; against Escherichia coli [2], 512 µg/mL (≈ 989 µM); in the experiment on Escherichia coli [3], 256 µg/mL (≈ 495 µM); against Escherichia coli [4], more than 2050 µg/mL; in the experiment with Escherichia coli [5], 1020 µg/mL; with Escherichia coli [6], more than 2050 µg/mL. The MIC in the experiment on Escherichia coli [7] is 512 µg/mL; in the experiment on Escherichia coli [8], 512 µg/mL (≈ 989 µM); with Escherichia coli [9], 512 µg/mL (≈ 989 µM); against Escherichia coli [10], 2 µg/mL (≈ 3.86 µM); in the experiment with Escherichia coli [17] it was more than 2050 µg/mL. Further, the Km in the experiment with Escherichia coli [11] was 44 µM; with Escherichia coli [12] it was 39 µM; in the experiment with Escherichia coli [13] it was 50 µM; with Escherichia coli [14], 27 µM; in the experiment with Escherichia coli [15] it was 170 µM; in the experiment with Escherichia coli [16], 55 µM. Besides, the kcat with Escherichia coli [11] was 172 s⁻¹; with Escherichia coli [12] it was 336 s⁻¹; in the experiment with Escherichia coli [13], 306 s⁻¹; in the experiment with Escherichia coli [14] it was 213 s⁻¹; with Escherichia coli [15], 1220 s⁻¹; in the experiment on Escherichia coli [16], 1250 s⁻¹. Further, the kcat/Km in the experiment with Escherichia coli [11] was 3.9e+06 M⁻¹ s⁻¹; with Escherichia coli [12], 8.6e+06 M⁻¹ s⁻¹; with Escherichia coli [13], 6.12e+06 M⁻¹ s⁻¹; in the experiment on Escherichia coli [14] it was 7.9e+06 M⁻¹ s⁻¹; in the experiment on Escherichia coli [15], 7.1e+06 M⁻¹ s⁻¹; in the experiment with Escherichia coli [16], 2.3e+06 M⁻¹ s⁻¹.
For the molecule `CO[C@@]1(NC(=O)Cc2cccs2)C(=O)N2C(C(=O)O)=C(COC(N)=O)CS[C@@H]21` [CEFOXITIN], the MIC against Escherichia coli [1] is 8 µg/mL (≈ 18.7 µM); in the experiment with Escherichia coli [2], 8 µg/mL (≈ 18.7 µM); in the experiment on Escherichia coli [3], 8 µg/mL (≈ 18.7 µM); with Escherichia coli [4], 8 µg/mL (≈ 18.7 µM); with Escherichia coli [5], 16 µg/mL; in the experiment with Escherichia coli [6] it was 8 µg/mL. In addition, the MIC came to 4 µg/mL with Escherichia coli [7]; 4 µg/mL (≈ 9.36 µM) against Escherichia coli [8]; 4 µg/mL (≈ 9.36 µM) with Escherichia coli [9]; 4 µg/mL (≈ 9.36 µM) against Escherichia coli [10]; 8 µg/mL in the experiment with Escherichia coli [17].
Take `CO/N=C(\C(=O)N[C@@H]1C(=O)N2C(C(=O)O)=C(COC(N)=O)CS[C@H]12)c1ccco1` [CEFUROXIME]: the MIC was 8 µg/mL (≈ 18.9 µM) in the experiment with Escherichia coli [1]; 8 µg/mL (≈ 18.9 µM) with Escherichia coli [2]; 8 µg/mL (≈ 18.9 µM) against Escherichia coli [3]; 8 µg/mL (≈ 18.9 µM) in the experiment on Escherichia coli [4]; 1020 µg/mL in the experiment on Escherichia coli [5]; 16 µg/mL with Escherichia coli [6]. Further, the MIC with Escherichia coli [7] was determined as 4 µg/mL; in the experiment with Escherichia coli [8] it was 4 µg/mL (≈ 9.43 µM); against Escherichia coli [9], 4 µg/mL (≈ 9.43 µM); with Escherichia coli [10], 4 µg/mL (≈ 9.43 µM); with Escherichia coli [17], 8 µg/mL.
On to `CO/N=C(\C(=O)N[C@@H]1C(=O)N2C(C(=O)[O-])=C(C[N+]3(C)CCCC3)CS[C@H]12)c1csc(N)n1`, for which the MIC is 2 µg/mL (≈ 4.16 µM) against Escherichia coli [1]; 16 µg/mL (≈ 33.3 µM) against Escherichia coli [4]; 4 µg/mL with Escherichia coli [5]; 16 µg/mL with Escherichia coli [6]; less than 0.06 µg/mL in the experiment on Escherichia coli [7]; less than 0.06 µg/mL in the experiment with Escherichia coli [8]. Also, the results for the MIC against Escherichia coli [9], in the experiment on Escherichia coli [10] and in the experiment on Escherichia coli [17] were less than 0.06 µg/mL, less than 0.06 µg/mL and 0.12 µg/mL, respectively. Besides, the Michaelis constant (Km) with Escherichia coli [11] was determined as 126 µM; with Escherichia coli [12], 145 µM; in the experiment on Escherichia coli [13], 45 µM; in the experiment on Escherichia coli [14], 72 µM. For the same molecule, the catalytic constant (kcat) was 2.5 s⁻¹ in the experiment on Escherichia coli [11]; 17 s⁻¹ in the experiment with Escherichia coli [12]; 2.8 s⁻¹ in the experiment with Escherichia coli [13]; 8 s⁻¹ with Escherichia coli [14]; less than 0.1 s⁻¹ in the experiment on Escherichia coli [15]; less than 0.1 s⁻¹ with Escherichia coli [16]. Further, the kcat/Km in the experiment on Escherichia coli [11] was 20000 M⁻¹ s⁻¹; with Escherichia coli [12], 110000 M⁻¹ s⁻¹; in the experiment on Escherichia coli [13] it was 60000 M⁻¹ s⁻¹; in the experiment on Escherichia coli [14] it was 110000 M⁻¹ s⁻¹.
